In general, GI50 refers to the concentration at which growth is held to half of that of the control. A higher GI50 goes with lower sensitivity of the cells. The TGI is the concentration giving total growth inhibition. Low readings indicate greater sensitivity of the cells, high ones lower sensitivity of the cells.

Molecules are shown by their SMILES.

Consider 1 compound from ChEMBL document CHEMBL1147398, “New structures and bioactivity patterns of bengazole alkaloids from a choristid marine sponge” (1993).

One experiment has as its system COLO 205. The experiment in a line: Cytotoxicity against human COLO205 cells. Type of experiment: functional.
The test system of another experiment is SK-MEL-5. The experiment in a line: Cytotoxicity against human SK-MEL-5 cells. Type of experiment: functional.
The mark [1] stands for this setting: read-out: LC50 (the source's name).

Consider `CCCCCCCCCCCCCC(=O)O[C@@H](c1cnco1)c1nc([C@@H](O)C[C@@H](O)[C@@H](O)[C@@H](C)O)co1` [BENGAZOLE A], for which the GI50 was determined as 0.181 µM in the experiment on COLO 205 and 1.13 µM in the experiment on SK-MEL-5. Besides, the TGI with COLO 205 was 1.5 µM; with SK-MEL-5, 4.83 µM. In addition, the CC50 with COLO 205 (setting [1]) came out at 5.25 µM; in the experiment on SK-MEL-5 (setting [1]), 4.83 µM.
